4 molecules from patent US11713322B2, “Benzimidazole derivatives as ERBB tyrosine kinase inhibitors for the treatment of cancer” (Capella Therapeutics, Inc., priority 2014, dated 2023) can be followed below.

SMILES strings stand for the structures.

Holding throughout (assay type): cell-based
In experiment [1] the test system is human epidermal keratinocytes, neonatal, or HEKn cells. Nature of the experiment: Cell proliferation assay, HEKn (wild-type ERBB1). To be noted: Keratinocyte, 72 hrs compound treatment. The method, then:
(§1) The biological activity of a test compound was determined using cell proliferation assays. The activity against wild-type ERBB1 was determined using A431 human epidermoid carcinoma cells (ATCC) and human epidermal keratinocytes, neonatal, or HEKn cells (ATCC).
(§2) A431 cells were grown in DMEM (Invitrogen) supplemented with 10% FBS (Lonza), 1% penicillin-streptomycin, and 2 mM glutamine (Invitrogen). HEKn cells were grown in EPILIFE® (Invitrogen) supplemented with HKGS (Invitrogen). […] Cells were maintained and propagated at 37° C. and 5% CO2 in a humidified cell culture incubator. Aliquots of cells from early passages were preserved for liquid nitrogen storage. Frozen vials of cells were thawed at 37° C. water bath. Cells were spun to remove freezing medium. The newly revived frozen cells were adapted in culture for 10 days before used for compound testing. Cells used in the assay were less than 20 subculture passages or 3 months in culture.
(§3) The test compounds were dissolved in dimethylsulfoxide (DMSO) and stored at −20° C. before testing. […] The cells were placed in a culture incubator overnight. Next day, test compounds in DMSO were added to the cells and placed back in the culture incubator for 72 hrs. In the meantime, the cell numbers at time zero of the compound treatment (T0) was measured by EnerCount (Codex BioSolutions). At the end of the compound treatment, the cell numbers were again measured by EnerCount as T72 values. The untreated controls (Ctrl) were cell numbers recorded from the 0.1% DMSO treatment. The percent growth inhibition by the test compound was calculated by the formula: (1−(T72−T0)/(Ctrl−T0))×100.
(§4) The results are summarized in Tables 1 and 2, wherein A represents a value no greater than 500 nM, B represents a value greater than 500 nM but no greater than 1 μM, C represents a value greater than 1 μM but no greater than 5 μM, and D represents a value greater than 5 μM; and wherein A′ represents a ratio of greater than 10, B′ represents a ratio of no greater than 10 but no less than 5, C′ represents a ratio of no greater than 5 but no less than 2, and D′ represents a ratio of no greater than 2.

The test system of experiment [2] is H1975 human NSCLC adenocarcinoma cells. Nature of the experiment: Cell proliferation assay, H1975 (drug-resistant mutant ERBB1, T790M/L858R). The settings on record: for GI50: Homo sapiens, NCI-H1975, 72 hrs compound treatment. The protocol: as §1, §2, §3, §4
The subject of experiment [3] is HCC827 human NSCLC adenocarcinoma cells. Kind of experiment: Cell proliferation assay, HCC827 (mutant ERBB1, exon 19 deletion). To be noted: for GI50: Homo sapiens, HCC827, 72 hrs compound treatment. The protocol:
as §1, §2, §3, §4

In experiment [4] the test system is A431 human epidermoid carcinoma cells. Kind of experiment: Cell proliferation assay, A431 (wild-type ERBB1). The settings on record: A-431, 72 hrs compound treatment, class symbols. The method, then: as §1, §2
as §3, with “(1−(T72−T0)/(Ctrl−T0))×100. […]” for “(1−(T72−T0)/(Ctrl−T0))×100.”

For `C=CC(=O)Nc1cccc(Nc2nc(Nc3ccc(N4CCN(C(C)=O)CC4)cc3OC)ncc2C(F)(F)F)c1` [CO-1686, reference compound], the GI50 in experiment [1] (numeric values, unit inferred) was found to be 2500 nM; in experiment [2] (numeric values, unit inferred) it was 109 nM; in experiment [3] (numeric values, unit inferred), 32 nM. Also, the “Selectivity Ratio (Wild-type ERBB1/Mutant ERBB1) HEKn/H1975” value in experiment [2] (ratio of GI50 HEKn/H1975) is “A′ (A′ represents a ratio of greater than 10)”. Also, the “Selectivity Ratio (Wild-type ERBB1/Mutant ERBB1) HEKn/HCC827” value in experiment [3] (ratio of GI50 HEKn/HCC827) is reported as “A′ (A′ represents a ratio of greater than 10)”.
As to `C=CC(=O)N1CCCC[C@@H](n2c(NC(=O)c3ccnc(OC)c3)nc3ccc4c(c32)OCCO4)C1` [C2, (R)—N-(1-(1-acryloylazepan-3-yl)-7,8-dihydro-1H-[1,4]dioxino[2′,3′:3,4]benzo[1,2-d]imidazol-2-yl)-2-methoxyisonicotinamide], the 50% growth inhibitory concentration (GI50) in experiment [1] (class symbols) was 1000 to 5000 nM; in experiment [2] (class symbols), under 500 nM; in experiment [4] it was 1000 to 5000 nM; in experiment [3] (class symbols), under 500 nM.
Take `C=CC(=O)N1CCCC[C@@H](n2c(NC(=O)c3ccnc(C(F)(F)F)c3)nc3ccc4c(c32)OCCO4)C1` [B1, (R)—N-(1-(1-acryloylazepan-3-yl)-7,8-dihydro-1H-[1,4]dioxino[2′,3′:3,4]benzo[1,2-d]imidazol-2-yl)-2-(trifluoromethyl)isonicotinamide]: the GI50 in experiment [1] (class symbols) was over 5000 nM; in experiment [2] (class symbols) it was under 500 nM; in experiment [4], 1000 to 5000 nM; in experiment [3] (class symbols), under 500 nM.
Regarding `C=CC(=O)N1CCCC[C@@H](n2c(NC(=O)c3ccnc(C)c3)nc3ccc4c(c32)OCCO4)C1` [C1, (R)—N-(1-(1-acryloylazepan-3-yl)-7,8-dihydro-1H-[1,4]dioxino[2′,3′:3,4]benzo[1,2-d]imidazol-2-yl)-2-methylisonicotinamide], the 50% growth inhibitory concentration (GI50) in experiment [1] (class symbols) is 1000 to 5000 nM; in experiment [2] (class symbols), under 500 nM; in experiment [4], 1000 to 5000 nM; in experiment [3] (class symbols), under 500 nM.
